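Exposure lasted 48 hours, with cells grown in 96-well plates and compounds tested at five concentrations. GI50 is the concentration that inhibits growth by half.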 Calls of active or inactive are those of the source. No stated cut-off is given here; in the data, active = GI50 up to about 1.1 µM and inactive = higher.

Among the test systems are LOX IMVI; SK-MEL-5; PC-3; SK-MEL-2; OVCAR-5; ACHN; SF-295; MDA-N; SN12C; CCRF-CEM; 786-0; OVCAR-8; M14; CAKI-1; SF-539; HT-29; MCF7; SR; OVCAR-3.
Common to all, as to experiment: NCI tumour cell line growth inhibition, 48 h

Take `COc1cc(/C=C2\NC(=O)N(/C=C3\C(=O)Oc4ccccc4C3=O)C2=O)ccc1O`: the GI50 was 49.5 µM (inactive) in the assay on LOX IMVI; 41 µM (inactive) in the assay on SK-MEL-5; 64 µM (inactive) in the assay with PC-3; > 100 µM (inactive) in the assay on SK-MEL-2; > 100 µM (inactive) in the assay on OVCAR-5; > 100 µM (inactive) in the assay on ACHN. The GI50 in the assay on SF-295 is > 100 µM (inactive); with MDA-N it was > 100 µM (inactive); in the assay with SN12C, 54.3 µM (inactive); in the assay with CCRF-CEM, 32.7 µM (inactive); in the assay on 786-0, 88.7 µM (inactive); in the assay with OVCAR-8 it was 56 µM (inactive). For the same compound, the GI50 is 99.3 µM (inactive) in the assay on M14; 59.8 µM (inactive) in the assay on CAKI-1; 63.1 µM (inactive) with SF-539; 54.5 µM (inactive) in the assay on HT-29; > 100 µM (inactive) in the assay with MCF7.
In the case of `CC1=NN(c2nc(N)nc(/C(C#N)=C/c3ccncc3)n2)C(C)(C)C1`, the GI50 in the assay on LOX IMVI was > 100 µM (inactive); in the assay on SK-MEL-5, > 100 µM (inactive); in the assay on SR, 74.6 µM (inactive); in the assay on PC-3, > 100 µM (inactive); in the assay on SK-MEL-2, > 100 µM (inactive); with ACHN, > 100 µM (inactive). In addition, the GI50 in the assay with SF-295 was > 100 µM (inactive); with CCRF-CEM, 49.3 µM (inactive); in the assay on 786-0, > 100 µM (inactive); in the assay with OVCAR-8 it was > 100 µM (inactive); in the assay on M14 it was > 100 µM (inactive); with CAKI-1 it was > 100 µM (inactive). Further, the GI50 in the assay on SF-539 is > 100 µM (inactive); in the assay on HT-29, > 100 µM (inactive); in the assay on MCF7, 91.8 µM (inactive).
Consider `Nc1sc2c(c1C(=O)c1ccc(Cl)c(Cl)c1)CCCC2`, for which the GI50 is 40.3 µM (inactive) in the assay with LOX IMVI; 60.4 µM (inactive) with OVCAR-3; 27.8 µM (inactive) in the assay with SR; 44.1 µM (inactive) in the assay with PC-3; 15 µM (inactive) in the assay on SK-MEL-2; > 100 µM (inactive) with OVCAR-5. Besides, the GI50 was 67.3 µM (inactive) in the assay with ACHN; 37.2 µM (inactive) in the assay on SF-295; > 100 µM (inactive) in the assay with SN12C; 26.4 µM (inactive) in the assay on CCRF-CEM; 68.7 µM (inactive) in the assay with 786-0; 67 µM (inactive) with OVCAR-8. For the same compound, the GI50 with M14 was 44.1 µM (inactive); in the assay with CAKI-1, 56.8 µM (inactive); in the assay on SF-539 it was 71.8 µM (inactive); in the assay with HT-29, 36.4 µM (inactive); with MCF7, 18.7 µM (inactive).
Regarding `NC(=O)C(=Cn1c(=S)[nH]c2ccc([N+](=O)[O-])cc21)C(N)=O`, the GI50 with LOX IMVI, in the assay with OVCAR-3, with SK-MEL-5, with SK-MEL-2, in the assay on OVCAR-5 and with ACHN was > 100 µM (inactive) in each case. Besides, the GI50 in the assay on SF-295, in the assay with MDA-N, with SN12C, in the assay with 786-0, in the assay with OVCAR-8 and in the assay with M14 was > 100 µM (inactive) each time. For the same compound, the GI50 in the assay with CAKI-1, with SF-539 and in the assay with HT-29 was > 100 µM (inactive) throughout.
For `O=C(Nc1sccc1S(=O)(=O)c1ccc(Cl)cc1)c1ccc(Cl)cc1Cl`, the GI50 is > 74.6 µM (inactive) with LOX IMVI; 28.2 µM (inactive) with OVCAR-3; 47 µM (inactive) in the assay with SK-MEL-5; 12.1 µM (inactive) with SR; > 100 µM (inactive) in the assay with PC-3; > 100 µM (inactive) in the assay with SK-MEL-2. Besides, the GI50 is > 84.5 µM (inactive) in the assay on OVCAR-5; > 100 µM (inactive) in the assay with ACHN; 37.8 µM (inactive) in the assay on SF-295; > 100 µM (inactive) in the assay on SN12C; > 100 µM (inactive) in the assay with CCRF-CEM; > 100 µM (inactive) in the assay on 786-0. The GI50 with OVCAR-8 is > 100 µM (inactive); in the assay on M14, > 100 µM (inactive); in the assay on CAKI-1, > 100 µM (inactive); in the assay on SF-539 it was > 100 µM (inactive); with HT-29, > 76.2 µM (inactive); in the assay on MCF7, 44.6 µM (inactive).
On to `C=C1[C@@H](OC(C)=O)/C=C/C2C3C(=O)[C@@](C)(OC(C)=O)[C@H]([C@H](OC(C)=O)[C@]4(O)[C@@H](C)C(=O)O[C@H]4[C@H]1Cl)[C@@]23C` (some centres undefined), for which the GI50 in the assay on LOX IMVI, in the assay on OVCAR-3, in the assay with SK-MEL-5, in the assay on PC-3, in the assay with SK-MEL-2 and in the assay on OVCAR-5 was > 100 µM (inactive) in each case. Besides, the GI50 in the assay on ACHN, in the assay on SF-295, in the assay with MDA-N, in the assay on SN12C, in the assay on CCRF-CEM and in the assay on 786-0 was > 100 µM (inactive) throughout. Also, the GI50 with OVCAR-8, with M14, in the assay with CAKI-1 and with HT-29 was > 100 µM (inactive) throughout.
In the case of `c1ccc(C[P+]2(c3ccccc3)c3ccccc3-c3ccccc32)cc1`, the GI50 in the assay on LOX IMVI, in the assay on OVCAR-3, in the assay on SK-MEL-5, with PC-3, in the assay on SF-295 and in the assay on MDA-N was > 100 µM (inactive) each time. Also, the GI50 with SN12C, in the assay with CCRF-CEM, in the assay on 786-0, in the assay on OVCAR-8, with M14 and in the assay on CAKI-1 was > 100 µM (inactive) in each case. The GI50 in the assay with SF-539 and in the assay with MCF7 was > 100 µM (inactive) each time.
Consider `CCOC(=O)Nc1cc2c(c(N)n1)N=C(c1ccc(OC)cc1)CN2`, for which the GI50 was 0.000315 µM (active) in the assay on LOX IMVI; 0.00044 µM (active) with OVCAR-3; < 0.0001 µM (active) with SK-MEL-5; < 0.0001 µM (active) in the assay on SR; < 0.01 µM (active) in the assay on SK-MEL-2; 0.0158 µM (active) in the assay on OVCAR-5. Moreover, the GI50 with ACHN is 0.00104 µM (active); in the assay on SF-295, 0.000269 µM (active); with MDA-N it was < 0.0001 µM (active); in the assay on SN12C, 0.00436 µM (active); in the assay on CCRF-CEM, 0.0016 µM (active); in the assay with 786-0, 0.00363 µM (active). Moreover, the GI50 in the assay on OVCAR-8 was 0.000895 µM (active); in the assay with M14 it was 0.000309 µM (active); in the assay with CAKI-1 it was < 0.0001 µM (active); in the assay on HT-29, 0.000637 µM (active); in the assay with MCF7, 0.00434 µM (active).
Turning to `C/C=C\C(CC(=O)OC)CC(=O)N(CCC1CN(S(=O)(=O)C(F)(F)F)c2ccccc21)Cc1ccc(OC)cc1OC` (centres undefined), the GI50 with LOX IMVI was > 100 µM (inactive); with OVCAR-3, > 100 µM (inactive); in the assay with SK-MEL-5, > 100 µM (inactive); in the assay on PC-3 it was 63 µM (inactive); in the assay on SK-MEL-2, > 100 µM (inactive); in the assay with OVCAR-5 it was > 100 µM (inactive). Also, the GI50 in the assay on ACHN, with SF-295, in the assay on MDA-N, in the assay on SN12C, in the assay with 786-0 and in the assay with M14 was > 100 µM (inactive) in each case. In addition, the GI50 with CAKI-1, in the assay on SF-539 and in the assay with MCF7 was > 100 µM (inactive) each time.
In the case of `COc1ccc(-c2c(C#N)c(-c3ccccc3)n(NS(=O)(=O)c3ccccc3)c(=O)c2C#N)cc1`, the GI50 is 60.4 µM (inactive) in the assay with LOX IMVI; 55.1 µM (inactive) with SK-MEL-5; 59 µM (inactive) with PC-3; 94.6 µM (inactive) in the assay with SK-MEL-2; > 100 µM (inactive) with OVCAR-5; > 100 µM (inactive) in the assay with ACHN. The GI50 is > 100 µM (inactive) in the assay on SF-295; > 100 µM (inactive) in the assay with MDA-N; > 100 µM (inactive) in the assay on SN12C; 36.9 µM (inactive) in the assay on CCRF-CEM; > 100 µM (inactive) in the assay on 786-0; 97.1 µM (inactive) in the assay with OVCAR-8. Moreover, the GI50 with M14 was > 100 µM (inactive); with CAKI-1, > 100 µM (inactive); in the assay with SF-539, 90.6 µM (inactive); with HT-29, > 100 µM (inactive); in the assay on MCF7, 50.5 µM (inactive).
`Cc1ccc(S(=O)(=O)NC2=NS(=O)(=O)c3cc(C)c(Cl)cc3S2)cc1`: the GI50 in the assay on LOX IMVI was 62.2 µM (inactive); with OVCAR-3, > 100 µM (inactive); with SK-MEL-5, > 100 µM (inactive); in the assay on SR, 63.4 µM (inactive); with PC-3, 45.5 µM (inactive); with SK-MEL-2 it was > 100 µM (inactive). Moreover, the GI50 with OVCAR-5 was > 100 µM (inactive); in the assay with ACHN, > 100 µM (inactive); in the assay on SF-295, 70.5 µM (inactive); in the assay with SN12C, > 100 µM (inactive); with 786-0, > 100 µM (inactive); in the assay on OVCAR-8, > 100 µM (inactive). For the same compound, the GI50 in the assay with M14 was 81.8 µM (inactive); with CAKI-1 it was > 100 µM (inactive); in the assay with SF-539 it was 58.3 µM (inactive); in the assay with HT-29, > 100 µM (inactive); with MCF7, 85.3 µM (inactive).
Consider `CC1=C(SCc2ccccc2)C(=O)c2ccccc2C1=O`, for which the GI50 in the assay on LOX IMVI is 17.6 µM (inactive); in the assay on OVCAR-3 it was 10.5 µM (inactive); with SK-MEL-5, 14.4 µM (inactive); with PC-3, 17.6 µM (inactive); in the assay on SK-MEL-2, 17.8 µM (inactive); in the assay with OVCAR-5, 25.5 µM (inactive). Also, the GI50 was 13.6 µM (inactive) with ACHN; 18.1 µM (inactive) with SF-295; 17.8 µM (inactive) in the assay on SN12C; 2.9 µM (inactive) in the assay on CCRF-CEM; 13.2 µM (inactive) in the assay on 786-0; 13.4 µM (inactive) in the assay on OVCAR-8. Also, the GI50 in the assay on CAKI-1 is 13.4 µM (inactive); with SF-539, 14.8 µM (inactive); in the assay with HT-29, 30.3 µM (inactive); with MCF7, 14.2 µM (inactive).

Source of the values: ChEMBL document CHEMBL1201862, “PubChem BioAssay data set” (2004).
